In article PMC11945486, “TAS1R2/TAS1R3 Single-Nucleotide Polymorphisms Affect Sweet Taste Receptor Activation by Sweeteners: The SWEET Project” (Nutrients, 2025):
No end group written: not given here.

T1: human TAS1R2-I486V/TAS1R3-WT (Homo sapiens, UniProt Q7RTX0+Q8TE23, I486V)
T1 construct: expressed in transfected cells; host or cells: HEK293T-Gα16gust44
T1 sequence (Q8TE23 20-839 I486V): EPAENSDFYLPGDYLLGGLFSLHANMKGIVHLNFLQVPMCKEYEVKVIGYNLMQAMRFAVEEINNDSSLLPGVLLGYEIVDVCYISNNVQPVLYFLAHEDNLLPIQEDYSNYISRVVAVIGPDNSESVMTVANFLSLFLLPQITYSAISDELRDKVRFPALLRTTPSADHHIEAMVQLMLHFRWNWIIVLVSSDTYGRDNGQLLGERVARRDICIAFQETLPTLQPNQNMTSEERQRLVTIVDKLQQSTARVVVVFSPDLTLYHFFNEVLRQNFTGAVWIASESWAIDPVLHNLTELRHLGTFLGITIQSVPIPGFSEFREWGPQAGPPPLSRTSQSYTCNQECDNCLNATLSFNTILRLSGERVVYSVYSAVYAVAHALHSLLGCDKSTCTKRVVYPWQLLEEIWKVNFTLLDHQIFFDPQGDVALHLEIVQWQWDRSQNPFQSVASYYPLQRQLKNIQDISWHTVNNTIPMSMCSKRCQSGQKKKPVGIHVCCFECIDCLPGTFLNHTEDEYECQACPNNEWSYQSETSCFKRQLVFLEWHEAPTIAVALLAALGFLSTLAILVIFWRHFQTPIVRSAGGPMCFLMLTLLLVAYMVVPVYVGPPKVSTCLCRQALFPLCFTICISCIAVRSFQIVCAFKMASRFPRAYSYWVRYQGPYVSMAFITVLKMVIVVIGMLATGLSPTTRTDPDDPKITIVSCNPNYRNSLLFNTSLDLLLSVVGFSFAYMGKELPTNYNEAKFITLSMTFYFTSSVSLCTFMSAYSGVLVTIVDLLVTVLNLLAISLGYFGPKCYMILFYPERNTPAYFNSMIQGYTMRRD
T1 sequence (Q7RTX0 21-852): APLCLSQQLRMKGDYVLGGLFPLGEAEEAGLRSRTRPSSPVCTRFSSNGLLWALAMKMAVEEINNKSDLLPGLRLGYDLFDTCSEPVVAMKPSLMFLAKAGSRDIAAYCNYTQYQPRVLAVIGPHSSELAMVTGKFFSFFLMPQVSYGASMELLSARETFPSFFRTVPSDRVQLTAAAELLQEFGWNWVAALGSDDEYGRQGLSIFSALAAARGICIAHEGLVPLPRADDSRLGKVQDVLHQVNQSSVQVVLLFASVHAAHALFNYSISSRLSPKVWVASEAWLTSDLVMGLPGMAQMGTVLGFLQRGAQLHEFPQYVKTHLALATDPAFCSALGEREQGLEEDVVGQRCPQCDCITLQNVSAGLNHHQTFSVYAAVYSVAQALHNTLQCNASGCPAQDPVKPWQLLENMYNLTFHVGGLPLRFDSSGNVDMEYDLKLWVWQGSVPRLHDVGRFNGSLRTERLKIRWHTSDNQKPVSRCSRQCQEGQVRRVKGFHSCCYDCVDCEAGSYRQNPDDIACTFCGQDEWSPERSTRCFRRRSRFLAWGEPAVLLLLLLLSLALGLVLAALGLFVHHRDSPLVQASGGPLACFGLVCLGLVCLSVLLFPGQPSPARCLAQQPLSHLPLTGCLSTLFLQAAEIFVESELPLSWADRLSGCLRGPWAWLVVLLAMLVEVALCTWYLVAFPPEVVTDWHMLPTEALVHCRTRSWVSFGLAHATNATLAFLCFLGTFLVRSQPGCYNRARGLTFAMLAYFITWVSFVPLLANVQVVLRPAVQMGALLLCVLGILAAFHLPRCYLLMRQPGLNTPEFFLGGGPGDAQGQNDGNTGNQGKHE


Target: T1, human TAS1R2-I486V/TAS1R3-WT
Experiment: Calcium mobilisation assay, TAS1R2 variant I486V with TAS1R3-WT
Type: cell-based
Settings: for Max ΔF/F0: maximal signal amplitude
Excerpt: The coding sequences for TAS1R2 and TAS1R3 were commercially synthesised, and the human codon was optimised for expression in human cells. The coding sequences of human TAS1R2 and TAS1R3 were subcloned and inserted into the mammalian expression vectors pcDNA6/myc-HisA and pcDNA4/myc-HisA (Invitrogen; Thermo Fisher Scientific; Illkirch, France) between the EcoRI and NotI restriction sites, generating the plasmids pcDNA6-TAS1R2 and pcDNA4-TAS1R3, respectively. To increase protein expression in mammalian cells, an upstream start codon was used, which was a sequence called MAX, corresponding to the QBI SP163 element also described in pcDNA4-HisMax (Invitrogen; Thermo Fisher Scientific; Illkirch, France). To measure the expression level of the receptor by immunohistochemistry, we used the FLAG sequence ([…]) in the C-terminal position, which encodes the FLAG tag epitope. SNP variants of TAS1R2 and TAS1R3 were constructed based on […], respectively, using site-directed mutagenesis (Genewiz; Leipzig, Germany).
The HEK293T cells were kindly provided by Jay P. Slack (Givaudan Flavors Corporation; Cincinnati, OH, USA). HEK293T cells stably transfected with Gα16gust44 [43, 67] were seeded in poly-D-lysine-coated clear-bottom black 96-well plates (0.35 × 10^5 cells/well) in high-glucose DMEM supplemented with 2 mM GlutaMAX, 10% dialysed foetal bovine serum with penicillin/streptomycin and G418 (400 μg/mL) at 37 °C and 6.3% CO2 in a humidified atmosphere as previously reported. […] As a negative control, HEK293T cells were mock-transfected with the empty expression vector. After a further 24 h of incubation, the HEK293T cells were washed with C1 buffer (130 mM NaCl, 5 mM KCl, 10 mM HEPES pH 7.4 and 2 mM CaCl2). The 96-well plates containing the cells were then stimulated with sweet-tasting compounds. […] Different concentration ranges were tested depending on the sweet compound injected. The Ca^2+ changes were expressed as fractional changes in fluorescent light intensity: ΔF/F = (F − F0)/F0, where F was the fluorescent light intensity at each point, and F0 was the value of emitted fluorescent light prior to stimulus application. To calculate dose–response relationships, the changes in fluorescence upon stimulus application were averaged, mock-subtracted and baseline-corrected. The dose–response data obtained were adjusted using a 4-parameter logistic equation. The half-maximal effective concentrations (EC50 values) and maximal signal amplitudes were calculated using SigmaPlot software (version 15.0) (Systat Software; San Jose, CA, USA).
For in vitro calcium mobilisation assay performed on hTAS1R2-SNPs, hTAS1R3-SNPs and mTAS1R3-I60T, 6 to 7 concentrations were tested for each sweet compound, plus buffer alone. All concentration–receptor combinations were measured in duplicate, and each experiment was repeated at least 4 times (8 wells/concentration). Results were expressed for each concentration as ΔF/F mean ± SEM and represented as dose–response curves.

Molecule	EC50 [µM]	R1 = Variant EC50/WT EC50	Max ΔF/F0
OC[C@H]1O[C@H](O[C@]2(CCl)O[C@H](CCl)[C@@H](O)[C@@H]2O)[C@H](O)[C@@H](O)[C@H]1Cl [Sucralose]	54 ± 5	0.6	0.69 ± 0.02
O=S(=O)(O)NC1CCCCC1 [Cyclamate, cyclamate]	1880 ± 36		
C=C(C)[C@@H]1CC=C(/C=N/O)CC1 [Perillartine, perillartine]	17.7 ± 1.2	1.0	1.49 ± 0.04
C=C1C[C@@]23CC[C@H]4[C@@](C)(CCC[C@@]4(C)C(=O)O[C@@H]4O[C@H](CO)[C@@H](O)[C@H](O[C@@H]5O[C@H](CO)[C@@H](O)[C@H](O)[C@H]5O)[C@H]4O[C@@H]4O[C@H](CO)[C@@H](O)[C@H](O)[C@H]4O)[C@@H]2CC[C@]1(O[C@@H]1O[C@H](CO)[C@@H](O)[C@H](O[C@@H]2O[C@H](CO)[C@@H](O)[C@H](O)[C@H]2O)[C@H]1O[C@@H]1O[C@H](CO)[C@@H](O)[C@H](O)[C@H]1O)C3 [Rebaudioside M, rebaudioside M]	17.6 ± 0.6	1.0	1.20 ± 0.01
COc1ccc(CCC(=O)c2c(O)cc(O[C@@H]3O[C@H](CO)[C@@H](O)[C@H](O)[C@H]3O[C@@H]3O[C@@H](C)[C@H](O)[C@@H](O)[C@H]3O)cc2O)cc1O [NHDC, neohesperidin dihydrochalcone]	92.6 ± 5.2	1.2	0.92 ± 0.02
thaumatin		1.4	1.21 ± 0.02
CC1=CC(=O)NS(=O)(=O)O1 [Acesulfame K, acesulfame K]	778 ± 108	1.1	0.46 ± 0.03
brazzein (QDKCKKVYENYPVSKCQLANQCNYDCKLDKHARSGECFYDEKRNLQCICDYCEY; ends and bridges not checked; cysteine pairing not given here; UniProt P56552 1-54, looked up) [sweet-tasting protein obtained by recombinant production using the yeast Pichia pastoris]		1.1	1.19 ± 0.03
C[C@H](CC[C@@H](O[C@@H]1O[C@H](CO[C@@H]2O[C@H](CO)[C@@H](O)[C@H](O)[C@H]2O)[C@@H](O)[C@H](O)[C@H]1O[C@@H]1O[C@H](CO)[C@@H](O)[C@H](O)[C@H]1O)C(C)(C)O)[C@H]1CC[C@@]2(C)[C@@H]3CC=C4[C@@H](CC[C@H](O[C@@H]5O[C@H](CO[C@@H]6O[C@H](CO)[C@@H](O)[C@H](O)[C@H]6O)[C@@H](O)[C@H](O)[C@H]5O)C4(C)C)[C@]3(C)[C@H](O)C[C@]12C [Mogroside V, mogroside V]	20.1 ± 0.9	1.2	1.39 ± 0.02
COC(=O)[C@H](Cc1ccccc1)NC(=O)[C@H](CC(=O)O)NCCC(C)(C)C [Neotame]	0.71 ± 0.06	0.8	0.61 ± 0.01
thaumatin (protein, Eight disulfides, sweet-tasting plant protein, E957) ATFEIVNRCSYTVWAAASKGDAALDAGGRQLNSGESWTINVEPGTKGGKIWARTDCYFDDSGSGICKTGDCGGLLRCKRFGRPPTTLAEFSLNQYGKDYIDISNIKGFNVPMDFSPTTRGCRGVRCAADIVGQCPAKLKAPGGGCNDACTVFQTSEYCCTTGKCGPTEYSRFFKRLCPDAFSYVLDKPTTVTCPGSSNYRVTFCPTA	10.5 ± 0.3		
